Tested on: Dab1 phosphorylation in embryonic neurons
Test: Reelin stimulation of embryonic neurons, Dab1 immunoprecipitation and Western blot
Assay type: cell-based, mouse
Method: Stimulation of embryonic neurons with purified Reelin has been described previously (Keshvara et al., J Biol Chem 276:16008-16014, 2001). Briefly, neurons obtained by trituration of embryonic brains were treated either with purified recombinant Reelin or with a control supernatant for 15 minutes at 37° C. After incubation neurons were either snap frozen or lysed immediately. Reelin-treated neuronal pellets were lysed in cell lysis buffer (25 mM Tris-HCl, 1% Nonidet P-40, 150 mM NaCl, 5 mM EDTA, 1 mM sodium orthovanadate, 20 mM sodium fluoride, and 20 μg/ml each of aprotinin and leupeptin). Whole brains were also homogenized in this lysis buffer. Cell lysates as well as brain homogenates were clarified by centrifugation at 10,000× g at 4° C. for 20 min.
Cell or brain lysates were incubated with anti-Cdk5 or anti-Dab1 antibodies at 4° C. for 2 hr. Immune complexes were collected with protein G-agarose beads (Pierce) and washed three times with cell lysis buffer. Immunoprecipitates were boiled in SDS sample buffer, separated by SDS-PAGE, and blotted to nitrocellulose membranes. Nitrocellulose membranes were blocked with 5% non-fat dry milk in TBST (50 mM Tris, pH 7.4, 150 mM NaCl, 1% Tween 20) for 1 hr at room temperature. The following antibodies were used for various immunoblots: anti-PSer491 (1:1000), anti-Cdk5 (1:2000), anti-PY198 (1:100), 4G10 (1:2000) (Upstate Biotechnology, Lake Placid, N.Y.), and anti-Dab1 (CT38, 1:5000). All dilutions were made in blocking solution, and incubations were carried out at room temperature for one hour. The membranes were washed in TBST and incubated with horseradish peroxidase-conjugated secondary antibody (1:10,000) for 1 hr. Detection was carried out using Super Signal West Dura Extended Duration Substrate (Pierce).
Since the accumulation of hypophosphorylated Dab1 in Cdk5^−/− neurons implies that Reelin signaling is defective, we sought to determine whether the defect in Reelin signaling is intrinsic to Cdk5-deficient neurons or whether it arises as an indirect consequence of the ectopic location of these neurons. […]

Reelin: Large secreted glycoprotein; purified recombinant Reelin used to stimulate embryonic neurons
Tyrosine phosphorylation of Dab1 (neurons from E16.5 Cdk5-/- embryos, Reelin-enriched DMEM vs DMEM alone, 4G10 anti-phosphotyrosine blot): sharp increase in tyrosine phosphorylation of Dab1
Tyrosine phosphorylation of Dab1 (neurons from E16.5 reeler brains, exogenous Reelin 15 minutes at 37° C.): sharp increase in tyrosine phosphorylation of Dab1
Serine 491 phosphorylation of Dab1 (neurons from E16.5 reeler brains, exogenous Reelin 15 minutes at 37° C., anti-PSer491 blot): did not cause any noticeable change
